Consider three compounds from patent US20080188554A1, “METHODS OF TREATING AVIAN HYPERTENSION” (Regents of the University of California Office of …, priority 2006, published 2008).

One experiment addresses Recombinant chicken sEH (Gallus gallus, UniProt Q45QT1). As to the kind of experiment: Non-radioactive epoxide hydrolase assay (HPLC-MS/MS), specific activity of substrates. The settings on record: compound as substrate, 50 μM, 30° C., 10 min. The experiment is classed as biochemical. The protocol:
The trans-9,10-epoxystearate was purchased (Sigma-Aldrich). A 5 mM solution of each substrate was made in ethanol for the EETs and methanol for the epoxystearate. The substrate solution (1 μL) was added to 100 μL of enzyme preparation in sodium phosphate buffer (0.1 M, pH 7.4) containing 0.1 mg/mL of BSA ([S]final=50 μM). The enzyme was incubated with the substrate at 30° C. for 10 min, and the reaction quenched by addition of 400 μL of methanol. The products were analyzed by HPLC-MS/MS as previously described (Newman, J. W. et al., J. Lipid Res. 43:1563-1578 (2002)) with the following exceptions. A 2.0×20 mm, 3-μm Luna C18 Mercury MS column (Phenomenex, Torrance, Calif.) was used with a 350 μL/min isocratic flow of […] (vol/vol/vol) acetonitrile/water/methanol with 0.1% glacial acetic acid for 2.5 min. Assays were performed in triplicate.

The target of the next experiment is T1, mouse sEH (Mus musculus, UniProt P34914).
T1 sequence (P34914 1-554): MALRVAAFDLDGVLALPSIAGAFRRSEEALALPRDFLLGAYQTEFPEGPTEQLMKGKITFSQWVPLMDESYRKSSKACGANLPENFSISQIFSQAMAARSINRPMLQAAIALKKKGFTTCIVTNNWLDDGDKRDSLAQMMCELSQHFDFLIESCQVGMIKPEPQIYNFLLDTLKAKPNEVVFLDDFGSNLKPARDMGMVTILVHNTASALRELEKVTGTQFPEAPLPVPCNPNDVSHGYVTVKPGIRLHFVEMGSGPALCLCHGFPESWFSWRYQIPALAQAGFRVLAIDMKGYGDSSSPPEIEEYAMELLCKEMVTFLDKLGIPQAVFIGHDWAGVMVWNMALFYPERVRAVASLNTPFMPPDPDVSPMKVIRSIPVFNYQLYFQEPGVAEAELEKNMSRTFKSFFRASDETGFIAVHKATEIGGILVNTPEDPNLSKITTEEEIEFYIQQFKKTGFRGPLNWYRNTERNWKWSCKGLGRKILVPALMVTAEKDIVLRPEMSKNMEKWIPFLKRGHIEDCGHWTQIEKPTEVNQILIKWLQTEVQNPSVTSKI
Particulars: compound as substrate, from Morisseau 2000; cited from earlier work.

Experiment [1] has as its system chicken sEH phosphatase activity. As to the kind of experiment: Phosphatase assay. It is filed as biochemical. The settings on record: conditions developed for the mammalian enzyme phosphatase assay. The procedure:
The phosphatase substrate, threo-9,10-phosphonooxy-hydroxy-octadecanoic acid was synthesized as previously described (Newman, J. W. et al., Proc. Natl. Acad. Sci. USA 100: 1558-1563 (2003)). The assay was performed and analyzed by HPLC-MS/MS as described (Newman, J. W. et al., Proc. Natl. Acad. Sci. USA 100:1558-1563 (2003)).

For another experiment, the target named is T2, sEH (Homo sapiens, UniProt P34913).
T2 sequence (P34913 1-555): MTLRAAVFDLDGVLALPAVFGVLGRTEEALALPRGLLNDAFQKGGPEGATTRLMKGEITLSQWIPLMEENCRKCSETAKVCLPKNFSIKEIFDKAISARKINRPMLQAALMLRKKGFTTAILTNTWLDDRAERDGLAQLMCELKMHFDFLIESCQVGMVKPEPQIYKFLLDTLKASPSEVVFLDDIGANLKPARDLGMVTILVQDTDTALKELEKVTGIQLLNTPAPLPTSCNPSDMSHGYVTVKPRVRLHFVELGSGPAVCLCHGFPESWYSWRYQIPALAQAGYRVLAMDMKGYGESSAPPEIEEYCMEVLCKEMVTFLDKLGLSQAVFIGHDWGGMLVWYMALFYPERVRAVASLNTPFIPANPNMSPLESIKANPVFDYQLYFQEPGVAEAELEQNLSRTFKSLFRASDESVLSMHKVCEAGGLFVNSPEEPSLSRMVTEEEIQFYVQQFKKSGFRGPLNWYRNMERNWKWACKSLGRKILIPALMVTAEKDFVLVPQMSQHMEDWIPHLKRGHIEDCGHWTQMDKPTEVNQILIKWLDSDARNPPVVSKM
Description: sEH inhibition, general statements on earlier tests. The settings on record: statement in words, no method given. It is filed as biochemical.

Marks after values point to notes of the source that are not given here.

Chain of chicken sEH phosphatase activity (as listed by the source): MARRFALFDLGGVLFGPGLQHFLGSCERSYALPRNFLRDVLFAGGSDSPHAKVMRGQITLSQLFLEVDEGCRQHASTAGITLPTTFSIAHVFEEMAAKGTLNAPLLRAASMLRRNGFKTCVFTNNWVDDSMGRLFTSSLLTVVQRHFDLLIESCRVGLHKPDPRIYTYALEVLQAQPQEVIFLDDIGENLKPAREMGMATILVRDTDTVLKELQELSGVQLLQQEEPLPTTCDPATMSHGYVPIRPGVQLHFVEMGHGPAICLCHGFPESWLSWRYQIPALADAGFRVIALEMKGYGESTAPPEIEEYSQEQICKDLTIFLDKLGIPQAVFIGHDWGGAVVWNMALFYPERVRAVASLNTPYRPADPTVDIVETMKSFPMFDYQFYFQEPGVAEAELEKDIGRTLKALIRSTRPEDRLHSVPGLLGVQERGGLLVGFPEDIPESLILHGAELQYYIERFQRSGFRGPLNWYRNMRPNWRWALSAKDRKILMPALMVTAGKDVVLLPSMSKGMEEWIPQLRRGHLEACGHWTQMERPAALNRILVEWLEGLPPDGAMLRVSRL
Chain of Recombinant chicken sEH (Q45QT1 entry or part of it): as the sequence (as listed by the source) above

With `CCCCCCCCC1OC1CCCCCCCC(=O)O` (stereo not drawn) [cis-9,10-epoxystearic acid], the Specific activity on Recombinant chicken sEH was 3.1 ± 0.2 nmol/min/mg; on mouse sEH it was 1139 ± 34* nmol · min^−1 · mg^−1. On to “threo-9,10-phosphonooxy-hydroxy-octadecanoic acid”, for which the “Hydrolysis of phosphatase substrate by chicken enzyme” value in experiment [1] is given as “did not hydrolyze”. Regarding `CCCCCCCCCCCCNC(=O)NC12CC3CC(CC(C3)C1)C2` [ADU, N-Adamantyl-N′-dodecyl urea], the “Activity as inhibitor of sEH” value on sEH is recorded as “particularly high activity”.
